± gives the standard deviation of the averaged measurements.
Columns and labels:
Assay in all cases: level (log10 ratio to DMSO vehicle control); higher = higher biomarker level / cell amount than vehicle control
[1] = compound: C=C(C)C(=O)OCCC(F)(F)C(F)(F)C(F)(F)C(F)(F)C(F)(F)C(F)(F)F [6:2 Fluorotelomer methacrylate]; details: in DMSO
Procedure: (§1)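 BioMAP Diversity Plus panel of 12 human primary cell co-culture systems (3C, 4H, LPS, SAg, BT, BF4T, BE3C, CASM3C, HDF3CGF, KF3CT, MyoF, Mphg). Compounds were added 1 h before stimulation and left for 24 h (MyoF 48 h; BT 72 h for soluble read-outs or 6 d for IgG). Biomarkers were read by ELISA, cytotoxicity by SRB, PBMC viability and proliferation by Alamar Blue. Each well value was divided by the mean of 8 DMSO control wells on the same plate and log10 transformed; duplicate blinded samples were tested at 4 concentrations.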

[2] = compound: C=CC(=O)OCC(F)(F)C(F)(F)C(F)(F)COC(=O)C=C [1H,1H,5H,5H-Perfluoro-1,5-pentanediol diacrylate]; details: 6700 nM; in DMSO
Procedure: as §1

[3] = compound: COC(=O)C(F)(F)C(F)(F)OC(F)(C(F)(F)F)C(F)(F)OC(F)=C(F)F [Methyl perfluoro(3-(1-ethenyloxypropan-2-yloxy)propanoate)]; details: in DMSO
Procedure: as §1

[4] = compound: FC(F)(F)C(F)(F)C(F)(F)C(F)(F)C(F)(F)C(F)(F)C(F)(F)I [1-Iodopentadecafluoroheptane]; details: in DMSO
Procedure: as §1

[5] = compound: FC(F)(F)C(F)(F)C(F)(F)C(F)(F)C(F)(F)C(F)(F)CC1CO1 [3-(Perfluorohexyl)-1,2-epoxypropane]; details: in DMSO
Procedure: as §1

[6] = compound: FC(F)(F)C(F)(F)C(F)(F)CC1CO1 [1H,1H-Heptafluorobutyl epoxide]; details: in DMSO
Procedure: as §1

Heptafluorobutyl iodide = compound: FC(F)(F)C(F)(F)C(F)(F)CI [Heptafluorobutyl iodide]; details: in DMSO
Procedure: as §1

[7] = compound: FC(F)(F)C(F)(F)CNCC(F)(F)C(F)(F)F [Bis(1H,1H-perfluoropropyl)amine]; details: in DMSO
Procedure: as §1

Octafluoroadipamide = compound: NC(=O)C(F)(F)C(F)(F)C(F)(F)C(F)(F)C(N)=O [Octafluoroadipamide]; details: in DMSO
Procedure: as §1

Nonafluoropentanamide = compound: NC(=O)C(F)(F)C(F)(F)C(F)(F)C(F)(F)F [Nonafluoropentanamide]; details: in DMSO
Procedure: as §1

[8] = compound: NC(=O)C(F)(F)C(F)(F)C(F)(F)C(F)F; details: in DMSO
Procedure: as §1

[9] = compound: NS(=O)(=O)C(F)(F)C(F)(F)C(F)(F)C(F)(F)C(F)(F)C(F)(F)F [Perfluorohexanesulfonamide]; details: in DMSO
Procedure: as §1

[10] = compound: O=C(O)C(F)(F)C(F)(F)C(F)(F)C(F)(F)C(F)(F)C(F)(F)C(F)(F)C(F)(F)C(F)(F)C(F)F [11-H-Perfluoroundecanoic acid]; details: in DMSO
Procedure: as §1

[11] = compound: O=C(O)C=CC(F)(C(F)(F)F)C(F)(F)F [3-(Perfluoroisopropyl)-2-propenoic acid]; details: in DMSO
Procedure: as §1

[12] = compound: O=S(=O)(Cl)C(F)(F)C(F)(F)C(F)(F)C(F)(F)C(F)(F)C(F)(F)C(F)(F)C(F)(F)F [Perfluoro-1-octanesulfonyl chloride]; details: in DMSO
Procedure: as §1

[13] = compound: O=S(=O)(F)C(F)(F)C(F)(F)C(F)(F)C(F)(F)C(F)(F)C(F)(F)C(F)(F)C(F)(F)F [Perfluorooctanesulfonyl fluoride]; details: in DMSO
Procedure: as §1

[14] = compound: O=S(=O)(O)C(F)(F)C(F)(F)C(F)(F)C(F)(F)C(F)(F)C(F)(F)C(F)(F)C(F)(F)C(F)(F)C(F)(F)F [Sodium perfluorodecanesulfonate]; details: in DMSO
Procedure: as §1

[15] = compound: O=S(=O)(O)CCC(F)(F)C(F)(F)C(F)(F)C(F)(F)C(F)(F)C(F)(F)F [6:2 Fluorotelomer sulfonic acid]; details: in DMSO
Procedure: as §1

Hexafluoroamylene glycol = compound: OCC(F)(F)C(F)(F)C(F)(F)CO [Hexafluoroamylene glycol]; details: in DMSO
Procedure: as §1

## LPS:CD62E/E-Selectin
[1]; 6700 nM
  level (log10): 0.0095 ± 0.018
[1]; 20000 nM
  level (log10): 0.003 ± 0.018
[1]; 60000 nM
  level (log10): 0.0335 ± 0.0064
[2]
  level (log10): -0.0265 ± 0.022
[3]; 6700 nM
  level (log10): -0.0165 ± 0.0035
[3]; 20000 nM
  level (log10): -0.0085 ± 0.00071
[4]; 6700 nM
  level (log10): -0.0155 ± 0.005
[4]; 20000 nM
  level (log10): -0.002 ± 0.0071
[5]; 6700 nM
  level (log10): -0.0055 ± 0.029
[5]; 20000 nM
  level (log10): 0 ± 0.0042
[5]; 60000 nM
  level (log10): 0.0165 ± 0.026
[6]; 6700 nM
  level (log10): 0.0105 ± 0.012
[6]; 20000 nM
  level (log10): -0.009 ± 0.016
[6]; 60000 nM
  level (log10): 0.0035 ± 0.036
Heptafluorobutyl iodide; 6700 nM
  level (log10): 0.005 ± 0.1
Heptafluorobutyl iodide; 20000 nM
  level (log10): -0.013 ± 0.0028
Heptafluorobutyl iodide; 60000 nM
  level (log10): 0.026 ± 0.068
[7]; 6700 nM
  level (log10): 0.0005 ± 0.032
[7]; 20000 nM
  level (log10): -0.012 ± 0.0057
[7]; 60000 nM
  level (log10): 0.0125 ± 0.00071
Octafluoroadipamide; 6700 nM
  level (log10): -0.007 ± 0.02
Octafluoroadipamide; 20000 nM
  level (log10): -0.0035 ± 0.016
Octafluoroadipamide; 60000 nM
  level (log10): 0.022 ± 0.0028
Nonafluoropentanamide; 6700 nM
  level (log10): 0.003 ± 0.0042
Nonafluoropentanamide; 20000 nM
  level (log10): 0.0175 ± 0.005
Nonafluoropentanamide; 60000 nM
  level (log10): 0.0215 ± 0.029
[8]; 6700 nM
  level (log10): -0.0115 ± 0.022
[8]; 20000 nM
  level (log10): -0.023 ± 0.0014
[8]; 60000 nM
  level (log10): -0.016 ± 0.016
[9]; 6700 nM
  level (log10): -0.002 ± 0.0099
[9]; 20000 nM
  level (log10): -0.0295 ± 0.012
[9]; 60000 nM
  level (log10): -0.0815 ± 0.011
[10]; 6700 nM
  level (log10): 0.0035 ± 0.019
[10]; 20000 nM
  level (log10): 0.0095 ± 0.025
[11]; 6700 nM
  level (log10): 0.0055 ± 0.015
[11]; 20000 nM
  level (log10): -0.013 ± 0.0042
[11]; 60000 nM
  level (log10): 0.0165 ± 0.0035
[12]; 6700 nM
  level (log10): -0.0105 ± 0.0078
[12]; 20000 nM
  level (log10): -0.0095 ± 0.00071
[12]; 60000 nM
  level (log10): 0.0585 ± 0.016
[13]; 6700 nM
  level (log10): 0.008 ± 0.0028
[13]; 20000 nM
  level (log10): 0.0015 ± 0.0064
[13]; 60000 nM
  level (log10): -0.002 ± 0.011
[14]; 1500 nM
  level (log10): -0.019 ± 0.02
[14]; 4400 nM
  level (log10): -0.045 ± 0.059
[14]; 13000 nM
  level (log10): -0.0425 ± 0.069
[14]; 40000 nM
  level (log10): -0.084 ± 0.076
[15]; 6700 nM
  level (log10): 0.034 ± 0.021
[15]; 20000 nM
  level (log10): 0.007 ± 0.014
[15]; 60000 nM
  level (log10): 0.027 ± 0.023
Hexafluoroamylene glycol; 6700 nM
  level (log10): 0.023 ± 0.024
Hexafluoroamylene glycol; 20000 nM
  level (log10): -0.007 ± 0.023
Hexafluoroamylene glycol; 60000 nM
  level (log10): -0.0125 ± 0.0064

## KF3CT:CCL2/MCP-1
[1]; 6700 nM
  level (log10): -0.051 ± 0.021
[1]; 20000 nM
  level (log10): -0.0475 ± 0.005
[1]; 60000 nM
  level (log10): -0.0235 ± 0.005
[2]
  level (log10): -0.0955 ± 0.018
[3]; 6700 nM
  level (log10): -0.015 ± 0.0014
[3]; 20000 nM
  level (log10): 0.01 ± 0.0099
[4]; 6700 nM
  level (log10): 0.0065 ± 0.0092
[4]; 20000 nM
  level (log10): 0.0015 ± 0.016
[5]; 6700 nM
  level (log10): 0.0005 ± 0.0092
[5]; 20000 nM
  level (log10): -0.0125 ± 0.03
[5]; 60000 nM
  level (log10): 0.0075 ± 0.053
[6]; 6700 nM
  level (log10): -0.031 ± 0.04
[6]; 20000 nM
  level (log10): -0.0685 ± 0.023
[6]; 60000 nM
  level (log10): -0.026 ± 0.042
Heptafluorobutyl iodide; 6700 nM
  level (log10): -0.0045 ± 0.0021
Heptafluorobutyl iodide; 20000 nM
  level (log10): -0.018 ± 0.013
Heptafluorobutyl iodide; 60000 nM
  level (log10): 0.0195 ± 0.016
[7]; 6700 nM
  level (log10): -0.0015 ± 0.05
[7]; 20000 nM
  level (log10): 0.001 ± 0.048
[7]; 60000 nM
  level (log10): -0.012 ± 0.042
Octafluoroadipamide; 6700 nM
  level (log10): -0.017 ± 0.0085
Octafluoroadipamide; 20000 nM
  level (log10): -0.026 ± 0.013
Octafluoroadipamide; 60000 nM
  level (log10): -0.001 ± 0.021
Nonafluoropentanamide; 6700 nM
  level (log10): 0.0175 ± 0.032
Nonafluoropentanamide; 20000 nM
  level (log10): 0.02 ± 0.0042
Nonafluoropentanamide; 60000 nM
  level (log10): 0.0215 ± 0.018
[8]; 6700 nM
  level (log10): -0.0055 ± 0.018
[8]; 20000 nM
  level (log10): -0.0245 ± 0.0078
[8]; 60000 nM
  level (log10): 0.0205 ± 0.026
[9]; 6700 nM
  level (log10): -0.0225 ± 0.021
[9]; 20000 nM
  level (log10): -0.0525 ± 0.013
[9]; 60000 nM
  level (log10): -0.0145 ± 0.013
[10]; 6700 nM
  level (log10): -0.043 ± 0.021
[10]; 20000 nM
  level (log10): -0.129 ± 0.0078
[11]; 6700 nM
  level (log10): -0.012 ± 0.017
[11]; 20000 nM
  level (log10): 0 ± 0.027
[11]; 60000 nM
  level (log10): 0.0105 ± 0.053
[12]; 6700 nM
  level (log10): -0.031 ± 0.025
[12]; 20000 nM
  level (log10): -0.0315 ± 0.019
[12]; 60000 nM
  level (log10): -0.0485 ± 0.016
[13]; 6700 nM
  level (log10): -0.0055 ± 0.0035
[13]; 20000 nM
  level (log10): -0.0305 ± 0.033
[13]; 60000 nM
  level (log10): 0.001 ± 0.052
[14]; 1500 nM
  level (log10): 0.037 ± 0.0099
[14]; 4400 nM
  level (log10): -0.0155 ± 0.042
[14]; 13000 nM
  level (log10): -0.0485 ± 0.029
[14]; 40000 nM
  level (log10): -0.023 ± 0.038
[15]; 6700 nM
  level (log10): 0.0125 ± 0.00071
[15]; 20000 nM
  level (log10): 0.0035 ± 0.013
[15]; 60000 nM
  level (log10): -0.0145 ± 0.043
Hexafluoroamylene glycol; 6700 nM
  level (log10): 0.0125 ± 0.005
Hexafluoroamylene glycol; 20000 nM
  level (log10): 0.012 ± 0.0085
Hexafluoroamylene glycol; 60000 nM
  level (log10): 0.0085 ± 0.021

— the supplement of paper PMC10331698
